# Data from patent US9580444B2, “Polycyclic pyrazolinone derivative and herbicide comprising same as effective component thereof” (priority 2013, dated 2017).
# Tests used:
# Type in all cases: in vivo
# Settings in all cases: 500 g a.i/ha, foliage treatment after emergence, about 14 days after treatment, score 0-5
# corn = experiment: Test Example-4: phytotoxicity by a foliage treatment after weeds are generated under upland field conditions
# Description: (§1) Using the formulation prepared according to the methods described above, the herbicidal effect of the bicyclic pyrazolinone derivative of the invention according to the methods shown in Test Examples below was examined. The herbicidal effect with respect to the test weeds or the phytotoxicity with respect to the test crops was examined according to the following criteria, and evaluated in six stage scores of 0 to 5. A vat having an area of 65 cm^2 and a depth of 2 cm was filled with upland soil, then, seeds of Amaranthus viridis (green amaranthus), Abutilon theophrasti (velvetleaf), Chenopodium album (common lambsquarters), […]. While watering was suitably performed on there, the seeds were grown for 14 days. A wettable powder or an emulsifiable concentrate of the compound of the present invention prepared according to Formulation Example was diluted, and a spray treatment was uniformly performed on the foliage portion of the plant so as to be a predetermined dosage in the amount of water of 4000 L per hectare. The herbicidal effect with respect to the test weeds and the phytotoxicity with respect to corn about 14 days after the treatment were evaluated according to the evaluation criteria in six stages of 0 to 5 described above.
# [1] = test system: Chenopodium album (common lambsquarters); experiment: Test Example-4: herbicidal effect by a foliage treatment after weeds are generated under upland field conditions
# Description: as §1
# [2] = test system: Abutilon theophrasti (velvetleaf); experiment: as above
# Description: as §1
# [3] = test system: Amaranthus viridis (green amaranthus); experiment: as above
# Description: as §1
SMILES,Phytotoxicity Corn (corn),Herbicidal effect Chenopodium album [1],Herbicidal effect Abutilon theophrast [2],Herbicidal effect Amaranthus viridis [3]
CCOC(=O)COc1ccccc1Oc1cc(-c2c(Cl)n3n(c2=O)CCCC3)c(F)cc1Cl [Example 3-17],0 (Herbicidal effect/phytotoxicity was 0% to 10%),5 (Herbicidal effect/phytotoxicity was 90% or greater),5 (Herbicidal effect/phytotoxicity was 90% or greater),5 (Herbicidal effect/phytotoxicity was 90% or greater)
COc1cc(-c2c(Cl)n3n(c2=O)CCCC3)ccc1Cl [Example 1-44],0 (Herbicidal effect/phytotoxicity was 0% to 10%),5 (Herbicidal effect/phytotoxicity was 90% or greater),5 (Herbicidal effect/phytotoxicity was 90% or greater),5 (Herbicidal effect/phytotoxicity was 90% or greater)
C#CCOc1cc(F)ccc1Oc1cc(-c2c(Cl)n3n(c2=O)CCCC3)c(F)cc1Cl [Example 3-35],1 (Herbicidal effect/phytotoxicity was 10% to 30%),5 (Herbicidal effect/phytotoxicity was 90% or greater),5 (Herbicidal effect/phytotoxicity was 90% or greater),5 (Herbicidal effect/phytotoxicity was 90% or greater)
C=CCOC(=O)C=C(COc1ccccc1Oc1cc(-c2c(Cl)n3n(c2=O)CCCC3)c(F)cc1Cl)OC [Example 3-24],0 (Herbicidal effect/phytotoxicity was 0% to 10%),5 (Herbicidal effect/phytotoxicity was 90% or greater),5 (Herbicidal effect/phytotoxicity was 90% or greater),5 (Herbicidal effect/phytotoxicity was 90% or greater)
Nc1cc(-c2c(Cl)n3n(c2=O)CCCC3)c(F)cc1Cl [Example 5-11],1 (Herbicidal effect/phytotoxicity was 10% to 30%),5 (Herbicidal effect/phytotoxicity was 90% or greater),5 (Herbicidal effect/phytotoxicity was 90% or greater),5 (Herbicidal effect/phytotoxicity was 90% or greater)
C=C(C)COC(=O)C=C(COc1cc(-c2c(Cl)n3n(c2=O)CCCC3)c(F)cc1Cl)OCC [Example 2-30],0 (Herbicidal effect/phytotoxicity was 0% to 10%),5 (Herbicidal effect/phytotoxicity was 90% or greater),5 (Herbicidal effect/phytotoxicity was 90% or greater),5 (Herbicidal effect/phytotoxicity was 90% or greater)
CC#CCOc1ccccc1Oc1cc(-c2c(Cl)n3n(c2=O)CCCC3)c(F)cc1Cl [Example 3-30],1 (Herbicidal effect/phytotoxicity was 10% to 30%),5 (Herbicidal effect/phytotoxicity was 90% or greater),5 (Herbicidal effect/phytotoxicity was 90% or greater),5 (Herbicidal effect/phytotoxicity was 90% or greater)
CC1(COc2cc(-c3c(Cl)n4n(c3=O)CCCC4)c(F)cc2Cl)CC(c2ccc(F)cc2Cl)=NO1 (centres unmarked) [Example 4-11],2 (Herbicidal effect/phytotoxicity was 30% to 50%),5 (Herbicidal effect/phytotoxicity was 90% or greater),5 (Herbicidal effect/phytotoxicity was 90% or greater),5 (Herbicidal effect/phytotoxicity was 90% or greater)
CC1(COc2cc(-c3c(Cl)n4n(c3=O)CCCC4)c(F)cc2Cl)CC(c2ccccc2Cl)=NO1 (centres unmarked) [Example 4-5],1 (Herbicidal effect/phytotoxicity was 10% to 30%),5 (Herbicidal effect/phytotoxicity was 90% or greater),5 (Herbicidal effect/phytotoxicity was 90% or greater),5 (Herbicidal effect/phytotoxicity was 90% or greater)
CCOC(=CC(=O)OCC(C)C)COc1cc(-c2c(Cl)n3n(c2=O)CCCC3)c(F)cc1Cl [Example 2-27],0 (Herbicidal effect/phytotoxicity was 0% to 10%),5 (Herbicidal effect/phytotoxicity was 90% or greater),5 (Herbicidal effect/phytotoxicity was 90% or greater),5 (Herbicidal effect/phytotoxicity was 90% or greater)
O=c1c(-c2cc([N+](=O)[O-])c(Cl)cc2F)c(C(F)(F)F)n2n1CCCC2 [Example 1-336],0 (Herbicidal effect/phytotoxicity was 0% to 10%),5 (Herbicidal effect/phytotoxicity was 90% or greater),5 (Herbicidal effect/phytotoxicity was 90% or greater),5 (Herbicidal effect/phytotoxicity was 90% or greater)
O=c1c(-c2cc(NS(=O)(=O)c3ccccc3Cl)c(Cl)cc2F)c(Cl)n2n1CCCC2 [Example 5-63],0 (Herbicidal effect/phytotoxicity was 0% to 10%),5 (Herbicidal effect/phytotoxicity was 90% or greater),5 (Herbicidal effect/phytotoxicity was 90% or greater),5 (Herbicidal effect/phytotoxicity was 90% or greater)
CC(C)Oc1ccccc1Oc1cc(-c2c(Cl)n3n(c2=O)CCCC3)c(F)cc1Cl [Example 3-8],0 (Herbicidal effect/phytotoxicity was 0% to 10%),5 (Herbicidal effect/phytotoxicity was 90% or greater),5 (Herbicidal effect/phytotoxicity was 90% or greater),5 (Herbicidal effect/phytotoxicity was 90% or greater)
C=CCOc1cccc(Oc2cc(-c3c(Cl)n4n(c3=O)CCCC4)c(F)cc2Cl)c1 [Example 3-28],0 (Herbicidal effect/phytotoxicity was 0% to 10%),5 (Herbicidal effect/phytotoxicity was 90% or greater),5 (Herbicidal effect/phytotoxicity was 90% or greater),5 (Herbicidal effect/phytotoxicity was 90% or greater)
O=c1c(-c2cc(OC3CCCC3)c(Cl)cc2F)c(Cl)n2n1CCCCC2 [Example 1-182],1 (Herbicidal effect/phytotoxicity was 10% to 30%),5 (Herbicidal effect/phytotoxicity was 90% or greater),5 (Herbicidal effect/phytotoxicity was 90% or greater),5 (Herbicidal effect/phytotoxicity was 90% or greater)
C=CCOc1ccccc1Oc1cc(-c2c(Cl)n3n(c2=O)CCCC3)c(F)cc1Cl [Example 3-21],1 (Herbicidal effect/phytotoxicity was 10% to 30%),5 (Herbicidal effect/phytotoxicity was 90% or greater),5 (Herbicidal effect/phytotoxicity was 90% or greater),5 (Herbicidal effect/phytotoxicity was 90% or greater)
C=C(C)COc1ccccc1Oc1cc(-c2c(Cl)n3n(c2=O)CCCC3)c(F)cc1Cl [Example 3-22],0 (Herbicidal effect/phytotoxicity was 0% to 10%),5 (Herbicidal effect/phytotoxicity was 90% or greater),5 (Herbicidal effect/phytotoxicity was 90% or greater),5 (Herbicidal effect/phytotoxicity was 90% or greater)
